Values quoted from earlier work in patent US20100092397A1, “Method For Treatment of COPD and Other Pulmonary Diseases” (Activaero GmbH, priority 2008, published 2010).

Experiments:
[1] = system: subjects with moderate-severe COPD; settings: nebulized ADC4022 12.5 mg twice daily plus budesonide 1 mg twice daily for 4 weeks, versus placebo plus budesonide
[2] = systemic (oral or i.v.) administration; levels above this range result in side effects

Cn1c(=O)c2[nH]cnc2n(C)c1=O [ADC4022]
lung function [1]: stable

Cn1c(=O)c2[nH]cnc2n(C)c1=O [Theophylline, theophylline]
recommended effective range, plasma level [2]: 10 to 20 mg/L
